Experimental data published in patent US8586622B2, “Laminin-332 product on stimulating composition” (Shiseido Company, Ltd., priority 2009, dated 2013).
Like-named read-outs stand apart in the source and are kept apart here.

What was measured:
[1] = tested on: laminin-332 production in HaCaT cells; test: Laminin-332 production in HaCaT cells (sandwich ELISA, relative to cell number), Example 1; type: cell-based, human; conditions: 1 μM; for relative value of laminin-332 concentration compared to the number of cells: 24 hours, negative control 0.04
Description: (§1) After completing the cell culture, culture medium was collected and centrifuged at 3000 rpm for five minutes. Concentration of laminin-332 in the supernatant was measured by ELISA (Amano, S., et al., J. Immunol. Methods, 224:161 (1999)). The ELISA used was sandwich type which utilizes biotinylated conjugate of BM165, i.e., a monoclonal antibody against α (alpha) 3 chain of laminin-5, and 6F12, i.e., a monoclonal antibody against β (beta)3 chain of laminin-5, and detection was carried out by utilizing avidin D labeled with a horseradish peroxidase (Vector Laboratories, Catalogue No. A-2004). PBS was used as a control.
The vertical line of the graph in FIG. 5 represents, the relative values of laminin-332 concentration compared to the number of cells that are present in culture supernatant in each well. The error bars for each experimental condition indicate the standard deviations of experimentally measured values obtained by repeating the experiment three times under the identical condition.

[2] = tested on: HaCaT cells; test: Quantification of number of viable HaCaT cells (alamarBlue); conditions: for fluorescence intensity of alamarBlue: 1 μM
Description: (§2) Human epidermal-derived HaCaT cells (H. Hans, et al., Experimental Cell Research, 239:399 (1998)) and human keratinocyte-derived KC cells (Sanko Junyaku Co., Ltd., manufacturer: LONZA Walkersville Inc.) were used. The cells were inoculated to a 24-well plate to have 4×10^4 cells per well. The cells were then cultured for 24 hours in a medium for cell culture (D-MEM (1 g/L glucose), manufactured by Wako Pure Chemical Industries, Ltd.) to which 0.1% bovine serum albumin (BSA) is supplemented (hereinafter, referred to as a “standard medium”) in a 5% CO2 and saturated water vapor atmosphere at 37° C. (degrees Celsius).
(§3) D-hydroxyproline used in this example was 4-cis-D-hydroxyproline.
(§4) After collecting the culture medium, the cells were washed with PBS and added with alamarBlue (trademark: Biosource International, Inc.) to have final concentration of 10%. Two hours later, according to the methods by Ahmed S. A. et al., (J. Immunol. Method., 170, 211-224 (1994)) and the instructions provided by the manufacturer, fluorescent intensity of the alamarBlue solution was measured with excitation wavelength of 544 nm and emission wavelength of 590 nm.

[3] = tested on: laminin-332 production in HaCaT cells; test: Laminin-332 concentration in HaCaT culture supernatant after addition of various amino acids, Example 2; type: cell-based, human; conditions: for effect on stimulating production of laminin-332 (conclusion in words): Examples 1 and 2, KC and HaCaT cells; for concentration of laminin-332 in the culture supernatant / stimulation of the production of laminin-332 (in words): HaCaT cells; for concentration of laminin-332 in the culture supernatant: 24 hours, negative control 1.5-1.8 ng/mL; for stimulation of the production of laminin-332 (in words): 10 nM, 100 nM, 1000 nM
Description: as §1
Cell culture was carried out in the same manner as the Example 1 by using HaCaT cells. After that, the medium was switched to the standard medium added with amino acids such as L- or D-alanine, L- or D-hydroxyproline, L- or D-aspartic acid, L- or D-asparagine, L- or D-proline, or L- or D-serine with the concentration of 10 nM, 100 nM, or 1000 nM, and cultured for 24 hours. The standard medium to which no amino acid had been added was used as a negative control. […] The production amount of laminin-332 was measured in the same manner as the Example 1.
The vertical line of the graph in FIG. 7 represents the concentrations (ng/mL) of laminin-332 in the culture supernatant in each well. The error bars for each experimental condition indicate the standard deviations of experimentally measured values obtained by repeating the experiment four times under the identical condition.

[4] = tested on: KC cells; test: Quantification of number of viable KC cells (alamarBlue); type: cell-based, human; conditions: for relative fluorescence intensity of alamarBlue: 1 μM, 24 hours, negative control 50; for cytotoxicity against KC cells: alamarBlue, no significant difference to negative control by Tukey-Kramer's test
Description: as §2, §3, §4

[5] = tested on: laminin-332 production in KC cells; test: Laminin-332 production in KC cells (sandwich ELISA of culture supernatant, relative to cell number); type: cell-based, human; conditions: 1 μM; for relative value of laminin-332 concentration compared to the number of cells: 24 hours, negative control 0.35
Description: as §2, §3
PBS was used as a control.
as §4

[6] = HaCaT cells, 24 hours, negative control 300
[7] = HaCaT cells, alamarBlue, no significant difference to negative control by Tukey-Kramer's test

Structure (SMILES)	relative value of laminin-332 concentration compared to the number of cells [1]	fluorescence intensity of alamarBlue [2, 6]	cytotoxicity for HaCaT cells [2, 7]	effect on stimulating production of laminin-332 (conclusion in words) [3]	concentration of laminin-332 in the culture supernatant ([3]; amino acid 10 nM) [ng/mL]	concentration of laminin-332 in the culture supernatant ([3]; amino acid 100 nM) [ng/mL]	concentration of laminin-332 in the culture supernatant ([3]; amino acid 1000 nM) [ng/mL]	stimulation of laminin-332 production in HaCaT cells (in words) ([1]; p less than 1% vs negative control by Scheffe's F test)	cytotoxicity for HaCaT cells [2]	fluorescence intensity of alamarBlue ([2]; human, 24 h)	relative fluorescence intensity of alamarBlue [4]	cytotoxicity against KC cells [4]	relative value of laminin-332 concentration compared to the number of cells [5]	stimulation of laminin-332 production in KC cells (in words) ([5]; p less than 1% vs negative control by Tukey-Kramer's test)	stimulation of the production of laminin-332 (in words) [3]
O=C(O)[C@H]1C[C@@H](O)CN1 (relative stereo) [D-hydroxyproline, 4-cis-D-hydroxyproline]	0.065	280	no cytotoxicity	effect on stimulating production of laminin-332 was observed	1.5	3.3	4.4								
C[C@@H](N)C(=O)O [D-alanine]	0.11			effect on stimulating production of laminin-332 was observed	1.7	3.4	4.8	stimulated production of laminin-332	no cytotoxicity	250	45	no cytotoxicity	0.50	stimulated production of laminin-332	
NC(=O)C[C@@H](N)C(=O)O [D-asparagine]					1.5	1.5	1.5								do not stimulate the production of laminin-332
N[C@H](CC(=O)O)C(=O)O [D-aspartic acid]					1.9	1.9	1.7								do not stimulate the production of laminin-332
O=C(O)[C@H]1CCCN1 [D-proline]					2.0	1.9	1.9								do not stimulate the production of laminin-332
N[C@H](CO)C(=O)O [D-serine]					1.8	1.8	1.8								do not stimulate the production of laminin-332
C[C@H](N)C(=O)O [L-alanine]	0.07				1.7	2.3	2.8		no cytotoxicity	250	40	no cytotoxicity	0.40		
NC(=O)C[C@H](N)C(=O)O [L-asparagine]					1.6	1.5	1.6								do not stimulate the production of laminin-332
N[C@@H](CC(=O)O)C(=O)O [L-aspartic acid]					1.8	1.8	2.0								do not stimulate the production of laminin-332
O=C(O)[C@@H]1C[C@@H](O)CN1 [L-hydroxyproline]	0.05	280	no cytotoxicity		1.5	2.3	2.7								
O=C(O)[C@@H]1CCCN1 [L-proline]					1.8	1.9	1.9								do not stimulate the production of laminin-332
N[C@@H](CO)C(=O)O [L-serine]					1.8	1.9	1.9								do not stimulate the production of laminin-332
